Source: paper PMC4321733 (Bioorganic & medicinal chemistry letters, 2014)

Target: PDE10A (Homo sapiens, UniProt Q9Y233)
Assay: scintillation proximity assay
Settings: ratio of IC50 values

Sequence of PDE10A (Q9Y233 whole entry): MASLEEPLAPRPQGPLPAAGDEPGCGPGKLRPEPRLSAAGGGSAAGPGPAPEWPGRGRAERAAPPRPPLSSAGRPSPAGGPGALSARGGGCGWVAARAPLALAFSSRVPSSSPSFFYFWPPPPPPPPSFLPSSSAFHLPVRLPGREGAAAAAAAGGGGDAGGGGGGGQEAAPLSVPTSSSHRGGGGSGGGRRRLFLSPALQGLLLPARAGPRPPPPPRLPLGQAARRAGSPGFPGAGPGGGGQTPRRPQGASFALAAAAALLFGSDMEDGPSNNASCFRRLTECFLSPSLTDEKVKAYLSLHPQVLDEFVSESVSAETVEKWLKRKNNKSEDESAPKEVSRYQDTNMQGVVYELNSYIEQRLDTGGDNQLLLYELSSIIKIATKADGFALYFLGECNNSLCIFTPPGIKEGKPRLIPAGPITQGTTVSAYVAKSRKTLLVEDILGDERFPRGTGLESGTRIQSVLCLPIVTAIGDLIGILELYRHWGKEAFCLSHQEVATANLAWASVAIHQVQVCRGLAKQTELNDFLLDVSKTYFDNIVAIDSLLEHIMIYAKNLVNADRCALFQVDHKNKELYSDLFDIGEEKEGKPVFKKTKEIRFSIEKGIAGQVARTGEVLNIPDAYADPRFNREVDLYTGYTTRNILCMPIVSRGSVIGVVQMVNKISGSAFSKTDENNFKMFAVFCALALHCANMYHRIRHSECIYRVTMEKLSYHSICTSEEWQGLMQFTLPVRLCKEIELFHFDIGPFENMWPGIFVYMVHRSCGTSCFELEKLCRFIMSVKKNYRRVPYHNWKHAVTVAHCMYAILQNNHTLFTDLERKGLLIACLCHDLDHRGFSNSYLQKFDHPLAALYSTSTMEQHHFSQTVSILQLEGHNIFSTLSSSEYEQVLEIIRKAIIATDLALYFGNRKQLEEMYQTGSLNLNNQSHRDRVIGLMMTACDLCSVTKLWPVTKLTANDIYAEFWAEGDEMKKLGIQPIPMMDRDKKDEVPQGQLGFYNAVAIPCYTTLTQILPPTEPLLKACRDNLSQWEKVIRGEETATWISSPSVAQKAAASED

SMILES | in vitro selectivity for PDE10A over PDE3A/3B, PDE4A/4B
COc1cc2nncc(-c3cnc(N4CCC(O)(c5ccc(F)nc5)CC4)c(C)c3)c2cc1OC [Compound 26b] | > 1,000 fold
COc1cc2nncc(-c3cnc(N4CCC(O)(c5cccnc5)CC4)c(C)c3)c2cc1OC [Compound 26a] | > 1,000 fold
Cn1c(C(=O)c2ccc(Oc3ncccc3-c3cccnc3)cc2)nc2ccccc21 [Compound 33c] | > 1,000 fold
